System: HEK293 cells expressing olfactory receptor
Assay: Luciferase assay: signal to 100 μM sulfur compounds in the presence or absence of a copper ion
Type: cell-based, human
Details: 100 μM odorant
Procedure: A reaction solution as to each consensus olfactory receptor prepared in Examples described above was prepared according to the composition shown in Table 4, left standing for 20 minutes in a clean bench, and then added to each well of a 96-well plate (Becton, Dickinson and Company). The original olfactory receptor was used as to OR4S2. Composition shown in Table 20 was used as to OR11H2 and OR4E2. Subsequently, 100 μL of HEK293 cells suspended in DMEM (Nacalai Tesque, Inc.) was inoculated at 2×10^5 cells/cm^2 to each well, and cultured for 24 hours in an incubator kept at 37° C. and 5% CO2. Cells expressing no olfactory receptor (Mock) were provided as a control.
[…] Under a copper ion addition condition, the test substance solution was adjusted to contain 30 μM copper(II) chloride (FUJIFILM Wako Pure Chemical Corp.) in addition to the odorant. The cells were cultured for 4 hours in a CO2 incubator and the luciferase gene was expressed sufficiently in the cells. Luciferase activity was measured using Dual-Glo™ luciferase assay system (Promega Corp.) in accordance with the operation manual of the product. A luminescence value derived from firefly luciferase induced by test substance stimulation in each well of the 96-well plate was divided by a luminescence value derived from Renilla luciferase to calculate a value (fluc/hRluc) as a signal, which was then used in analysis. The signal under each transfection condition was normalized with the signal value (fluc/hRluc) under an odorant stimulation-free condition defined as 0% and the signal value (fluc/hRluc) by stimulation with 10 μM forskolin defined as 100%, and used as a response (%) in analysis.

Molecule | responsiveness to methyl mercaptan, dimethyl sulfide, dimethyl disulfide, or dimethyl trisulfide in the presence of a copper ion in comparison with that in the absence
consensus OR2T1: consensus olfactory receptor polypeptide (protein, OR2T1 consensus-c, consensus olfactory receptor polypeptide) MEEYNTSSTDFTFMGLFNRKETSGLLFAIISIIFFTALMANGVMIFLIQTDLRLHTPMYFLLSHLSFIDMMYISTIVPKMLVDYLLGQRTISFVGCTAQHFLYLTLVGAEFFLLGLMAYDRYVAICNPLRYPVLMSRRVCWMIIAGSWFGGSLDGFLLTPITMSFPFCNSREINHFFCEAPAVLKLACADTALYETVMYVCCVLMLLIPFSVVIASYARILTTVHRMSSVEGRKKAFATCSSHMTVVTLFYGAAMYTYMLPHSYHKPAQDKVFSVFYTILTPMLNPLIYSLRNKDVTGALKRALGRFKGPQRVSGGVF | improved in responsiveness
consensus OR2T29: consensus olfactory receptor polypeptide (protein, OR2T29 consensus-c, consensus olfactory receptor polypeptide) MANITWMANHTGRSDFILVGLFSQSKHPALLCVVIFVVFLMALSGNAILILLIHSDAHLHTPMYFFISQLSLMDVMYISVTVPKMLMDQVMGVNKISAPECGMQMFLYLTLAGSEFFLLAAMAYDRYVAICHPLRYPVLMNHRVCLLLVSGCWFLGSVDGFMLTPITMTFPFCRSREIHHFFCEVPAVMKLSCSDTSLYETLMYLCCVLMLLIPVTVISSSYSFILLTIHRMNSAEGRKKAFATCSSHMTVVILFYGAAVYTYMLPSSYHTPEKDMMVSVFYTILTPVLNPLIYSLRNKDVTGALKKMLNVGSVFQETIK | improved in responsiveness
consensus OR2T5: consensus olfactory receptor polypeptide (protein, OR2T5 consensus-c, consensus olfactory receptor polypeptide) MANITWMANHTGKSDFILVGLFSQSKHPALLCVVIFVVFLMALSGNAILILLIHSDAHLHTPMYFFISQLSLMDVMYISVTVPKMLMDQVMGVNKISAPECGMQMFLYLTLAGSEFFLLAAMAYDRYVAICHPLRYPVLMNHRVCLLLASGCWFLGSVDGFMLTPITMTFPFCRSREIHHFFCEVPAVMKLSCSDTSLYETLMYLCCVLMLLIPVTVISSSYSFILLTIHRMNSAEGRKKAFATCSSHMTVVILFYGAAVYTYMLPSSYHTPEKDMMVSVFYTILTPVLNPLIYSLRNKDVTGALKKMLNVGSVFQETIK | improved in responsiveness
consensus OR2T27: consensus olfactory receptor polypeptide (protein, OR2T27 consensus-c, consensus olfactory receptor polypeptide) MEWGNYSMYADFVLLGLFSNTRFPWLLFALILLVFVISIASNTVMIILIHIDSRLHTPMYFLLSQLSLMDILYISTIVPKMLVDQVMGQRAISFAGCTAQHFLYLTLAGAEFFLLGLMSYDRYVAICNPLRYPVLMSRKVCLLIVAAAWLGGSIDGFLLTPVTMQFPFCASREINHFFCEVPALLKLSCTDTSAYETAMYVCCIMMLLIPFSVISASYTRILITVYRMSEAEGRRKAVATCSSHMVVVSLFYGAAMYTYVLPHSYHTPEQDKAVSAFYTILTPMLNPLIYSLRNKDVTGALQKALGRCVSSGKVTTF | improved in responsiveness
consensus OR4K17: consensus olfactory receptor polypeptide (protein, OR4K17 consensus-c, consensus olfactory receptor polypeptide) MESMELLNQSQVSEFILLGLTSSQDIQFLLFALFSVIYVVTVLGNLLIVVTVFNTPNLNTPMYFLLGNLSFVDMTLASFATPKMILNLVKKQKTISFAGCFTQIFLLHLLGGVEMVLLVSMAYDRYVAICKPLHYMTIMNKKVCVLLVVTSWLLGLLHSGLQIPFVVNLPFCGPNVVDSIFCDLPLVTKLACIDTYFVQIVIVANSGMISLSCFIILLISYSLILITIRNHSSTGQSKARSTLTAHITVVILFFGPCIFIYIWPFSNHSVDKFLAVFYTIITPILNPIIYTLRNKEMKTAMKKLWRAFVNSREDT | improved in responsiveness
consensus OR2T4: consensus olfactory receptor polypeptide (protein, OR2T4 consensus-c, consensus olfactory receptor polypeptide) MANITWMANHTGWSDFILVGLFRQSKHPALLCVVIFVVFLMALSGNAVLILLIHSDAHLHTPMYFFISQLSLMDMMYISVTVPKMLLDQVMGVNKISAPECGMQMFLYVTLAGSEFFLLATMAYDRYVAICHPLRYPVLMNHRVCLFLASGCWFLGSVDGFTFTPITMTFPFCRSREIHHFFCEVPAVLKLSCSDTSLYEIFMYLCCVLMLLIPVTVISSSYLFILLTIHRMNSAEGRKKAFATCSSHMTVVILFYGAAIYTYMLPSSYHTPEKDMMVSVFYTILTPVLNPLIYSLRNKDVMGALKKMLNVGPVFQETMK | improved in responsiveness
consensus OR4E2: consensus olfactory receptor polypeptide (protein, OR4E2 consensus-c, consensus olfactory receptor polypeptide) MDSLNQTRVTEFVFLGLTDNWVLEILFFMAFSAIYVLTLLGNILIIVTIVFTPRLHTPMYFFLSNLSFIDICHSSVTVPKMLEGLLLERKTISFDNCIAQLFFLHLFACAEIFLLTIMAYDRYVAICTPLHYPNVMNMRVCVQLVFALWLGGTVHSLVQTFLTIRLPYCGPNIIDSYFCDVPPVIKLACTDTYLTGMLIVSNSGTISLTCFLALVTSYTVILVSLRKQSAEGRRKALSTCSAHFMVVALFFGPCIFIYTRPDTSFSIDKVVSVFYTVVTPLLNPLIYTLRNEEVKSAMKQLRQRQVFFTKSY | improved in responsiveness
OR4S2: original human olfactory receptor OR4S2, SEQ ID NO: 18 (protein, listed as Homo sapiens) MEKINNVTEFIFWGLSQSPEIEKVCFVVFSFFYIIILLGNLLIMLTVCLSNLFKSPMYFFLSFLSFVDICYSSVTAPKMIVDLLAKDKTISYVGCMLQLFGVHFFGCTEIFILTVMAYDRYVAICKPLHYMTIMNRETCNKMLLGTWVGGFLHSIIQVALVVQLPFCGPNEIDHYFCDVHPVLKLACTETYIVGVVVTANSGTIALGSFVILLISYSIILVSLRKQSAEGRRKALSTCGSHIAMVVIFFGPCTFMYMRPDTTFSEDKMVAVFYTIITPMLNPLIYTLRNAEVKNAMKKLWGRNVFLEAKGK | improved in responsiveness

Molecular target: T1, OR2T11 (Homo sapiens, UniProt Q8NH01)
T1 sequence (Q8NH01 1-316): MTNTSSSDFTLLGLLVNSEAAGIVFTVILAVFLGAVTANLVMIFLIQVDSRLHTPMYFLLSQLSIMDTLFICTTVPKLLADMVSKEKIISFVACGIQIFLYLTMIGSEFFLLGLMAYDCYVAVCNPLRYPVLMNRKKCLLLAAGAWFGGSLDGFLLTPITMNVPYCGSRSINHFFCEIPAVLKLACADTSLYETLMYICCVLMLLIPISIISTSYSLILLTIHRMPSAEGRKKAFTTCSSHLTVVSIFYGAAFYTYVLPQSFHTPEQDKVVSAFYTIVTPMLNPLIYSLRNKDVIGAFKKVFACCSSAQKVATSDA
Assay: not given
Details: Block E et al., Nat. Prod. Rep. 2017; cited from earlier work

Molecule | response of OR2T11
CCCCS [1-butanethiol] | responds
CC(C)CS [2-methyl-1-propanethiol] | responds
SC1CCCC1 [cyclopentanethiol] | responds
CC(C)C(C)S (stereo not drawn) [3-methyl-2-butanethiol] | responds
CCCS [1-propanethiol] | responds
CCS [ethanethiol] | responds
CC(C)S [2-propanethiol] | responds
CC(C)(C)S [2-methyl-2-propanethiol] | responds
CCCC(C)S (stereo not drawn) [2-pentanethiol] | responds
CCC(C)S (stereo not drawn) [2-butanethiol] | responds

Reference: patent publication US20240279302A1, “OLFACTORY RECEPTOR EXPRESSING METHOD AND RESPONSE MEASUREMENT METHOD” (Kao Corporation, priority 2021, published 2024)
